This passage reports activity and Percent fungal survival results from PMC8815882, “Screening the pandemic response box identified benzimidazole carbamates, Olorofim and ravuconazole as promising drug candidates for the treatment of eumycetoma” (PLoS Neglected Tropical Diseases, 2022).

For the experiment, the system named is M. mycetomatis genome strain MM55. Put plainly: CLSI M38-A2 based in vitro susceptibility screening (XTT or resazurin), growth at fixed concentration. The experiment is classed as cell-based, Madurella mycetomatis. Particulars: Madurella mycetomatis; for Percent fungal survival at 100 µM: read-out: Percentage survival at 100um, 100 uM A (second replicate column). A general note: Tetrazolium assays rely on reduction of a dye to a coloured formazan, in cell work by metabolically active cells.

Setting [1] is: mean of three, M. mycetomatis MM55, read-out: Percentage survival at 25um, 25 uM mean.
Setting [2] is: replicate A, M. mycetomatis MM55, read-out: Percentage survival at 25um, 25 um A.
Setting [3] is: replicate B, M. mycetomatis MM55, read-out: Percentage survival at 25um, 25 uM B.
The mark [4] stands for this setting: replicate C, M. mycetomatis MM55, read-out: Percentage survival at 25um, 25 uM C.
The mark [5] stands for this setting: mean of three, M. mycetomatis MM55, read-out: Percentage survival at 100um, 100 uM mean.
The mark [6] stands for this setting: replicate 1, M. mycetomatis MM55, read-out: Percentage survival at 100um, 100 uM A (first replicate column).
Where [7] appears, read: replicate 2, M. mycetomatis MM55.
Setting [8] is: replicate 3, M. mycetomatis MM55, read-out: Percentage survival at 100um, 100 uM A (third replicate column).
Where [9] appears, read: mean, read-out: Percentage survival at 25um, 25 uM mean.
Where [10] appears, read: replicate A, read-out: Percentage survival at 25um, 25 um A.
The mark [11] stands for this setting: replicate B, read-out: Percentage survival at 25um, 25 uM B.
Where [12] appears, read: replicate C, read-out: Percentage survival at 25um, 25 uM C.
Where [13] appears, read: mean, read-out: Percentage survival at 100um, 100 uM mean.
Setting [14] is: replicate (first column), read-out: Percentage survival at 100um, 100 uM A.
Where [15] appears, read: replicate (second column), read-out: Percentage survival at 100um, 100 uM A.
[16] abbreviates: replicate (third column), read-out: Percentage survival at 100um, 100 uM A.
Where [17] appears, read: mean of replicates, read-out: Percentage survival at 25um, 25 uM mean.
[18] abbreviates: mean of replicates, read-out: Percentage survival at 100um, 100 uM mean.
Where [19] appears, read: replicate 1, read-out: Percentage survival at 100um, 100 uM A.
Setting [20] is: replicate 2, read-out: Percentage survival at 100um, 100 uM A.
Where [21] appears, read: replicate 3, read-out: Percentage survival at 100um, 100 uM A.
The mark [22] stands for this setting: mean of three replicates, read-out: Percentage survival at 25um, 25 uM mean.
Where [23] appears, read: first replicate column, read-out: Percentage survival at 100um, 100 uM A.
Setting [24] is: mean of three replicates, read-out: Percentage survival at 100um, 100 uM mean.
Setting [25] is: second replicate column, read-out: Percentage survival at 100um, 100 uM A.
The mark [26] stands for this setting: third replicate column, read-out: Percentage survival at 100um, 100 uM A.
Setting [27] is: mean of replicates, MM55, read-out: Percentage survival at 25um, 25 uM mean.
Setting [28] is: replicate A, MM55, read-out: Percentage survival at 25um, 25 um A.
[29] abbreviates: replicate B, MM55, read-out: Percentage survival at 25um, 25 uM B.
The mark [30] stands for this setting: replicate C, MM55, read-out: Percentage survival at 25um, 25 uM C.
Where [31] appears, read: mean of replicates, MM55, read-out: Percentage survival at 100um, 100 uM mean.
Setting [32] is: replicate 1, MM55, read-out: Percentage survival at 100um, 100 uM A.
Setting [33] is: replicate 2, MM55, read-out: Percentage survival at 100um, 100 uM A.
Setting [34] is: replicate 3, MM55, read-out: Percentage survival at 100um, 100 uM A.
Setting [35] is: replicate 1, read-out: Percentage survival at 100um, 100 uM A (first replicate column).
[36] abbreviates: replicate 3, read-out: Percentage survival at 100um, 100 uM A (third replicate column).

Like-named read-outs stand apart in the source and are kept apart here.

Take `N=C(N)c1ccc(COc2ccc(Cl)cc2)cc1` [MMV1579844]: the activity at 25 µM under setting [1] worked out at 73%, the activity at 25 µM under setting [2] came to 69.6%, the activity at 25 µM under setting [3] turned out to be 72.8% and the activity at 25 µM under setting [4] was determined as 76.5%. Also, the activity at 100 µM by setting is: under setting [5], 73.6%; under setting [6], 55.9%; under setting [8], 67.2%. For the same compound, under setting [7], the Percent fungal survival at 100 µM was 97.7%.

As for `Cc1cc(C2CCCCC2)n(O)c(=O)c1` [MMV002731], the activity at 25 µM was 32% under setting [9], -3.44% under setting [10], 96.3% under setting [11] and 3.22% under setting [12]. Moreover, the activity at 100 µM is 5.09% under setting [13], -2.39% under setting [14], 6.16% under setting [15] and 11.5% under setting [16].

For `COc1c(NC(=O)[C@H]2CC[C@@H](COc3ccc([N+](=O)[O-])cc3)CC2)c(F)cc2c(=O)c(C(=O)O)cn(C3CC3)c12` [MMV1633965], the activity at 25 µM was 83.5% under setting [17], 86.3% under setting [10], 88.2% under setting [11] and 76% under setting [12]. For the same compound, the activity at 100 µM runs as follows: under setting [18], 82.8%; under setting [19], 86.1%; under setting [20], 78.7%; under setting [21], 83.4%.

Take `O=C(O)c1ccccc1Sc1ncnc2sc3c(c12)CCC3` [MMV1579878]: the activity at 25 µM is, setting by setting: under setting [9], 83.5%; under setting [10], 89.3%; under setting [11], 87%; under setting [12], 74.1%. The activity at 100 µM reads like this: under setting [13], 57%; under setting [14], 1.56%; under setting [15], 73.3%; under setting [16], 96.2%.

For the compound `COC1CC2CCC(C)C(O)(O2)C(=O)C(=O)N2CCCCC2C(=O)OC(C(C)CC2CCC(OCCO)C(OC)C2)CC(=O)C(C)/C=C(\C)C(O)C(OC)C(=O)C(C)CC(C)/C=C/C=C/C=C/1C` (centres unmarked) [MMV639951], the activity at 25 µM under setting [22] is 61.4%, the activity at 25 µM under setting [10] was determined as 64.2%, the activity at 25 µM under setting [11] stood at 62.2% and the activity at 25 µM under setting [12] was 57.7%. Besides, the activity at 100 µM runs as follows: under setting [23], 69.2%; under setting [24], 51.7%; under setting [25], 46.7%; under setting [26], 39.4%.

For the compound `O=[N+]([O-])c1cn2c(n1)OC[C@@H](OCc1ccc(OC(F)(F)F)cc1)C2` [MMV688755], the activity at 25 µM is, setting by setting: under setting [17], 85.3%; under setting [10], 91.8%; under setting [11], 92.4%; under setting [12], 71.7%. The activity at 100 µM stood at 85.9% under setting [18], 75% under setting [19], 105% under setting [20] and 77.3% under setting [21].

`N#CCN1C(=O)COc2cc(F)c(N3C(=O)c4ccccc4C3=O)cc21` [MMV1579785]: the activity at 25 µM was determined as 81.2% under setting [17], 78.3% under setting [10], 91.5% under setting [11] and 73.8% under setting [12]. Moreover, the activity at 100 µM stood at 88.3% under setting [18], 83.8% under setting [19], 94.2% under setting [20] and 87% under setting [21].

In the case of `CCCCCCCCC(CP(=O)(O)C(C)N)C(=O)O` (centres unmarked) [MMV1582487], the activity at 25 µM was 84.2% under setting [17], 90.3% under setting [10], 86.2% under setting [11] and 76.2% under setting [12]. Further, the activity at 100 µM was 95.3% under setting [18], 85.8% under setting [19], 103% under setting [20] and 97.5% under setting [21].

As to `C=CCN(C(=O)OCc1ccc([N+](=O)[O-])cc1)C1CCN(CC[C@](C)(CN(C)S(=O)(=O)c2ccccc2)c2ccccc2)CC1` [MMV1782214], the activity at 25 µM turned out to be 69.4% under setting [27], 79.7% under setting [28], 66.7% under setting [29] and 61.9% under setting [30]. In addition, the activity at 100 µM reads like this: under setting [31], 62.1%; under setting [32], 55.9%; under setting [33], 76.9%; under setting [34], 53.4%.

As for `CCCCCc1ccc(C(=O)NCCn2cc(CCCCCc3cnc(N)[nH]3)nn2)cc1` [MMV1580847], the activity at 25 µM runs as follows: under setting [22], 63.2%; under setting [10], 58%; under setting [11], 61.7%; under setting [12], 70%. Also, the activity at 100 µM came out at 64.8% under setting [24], 67% under setting [35] and 32.1% under setting [36]. The Percent fungal survival at 100 µM (replicate 2) turned out to be 95.2%.

In the case of `C=C(C)n1c(=O)n(Cc2ccccc2C)c2ccccc21` [MMV1579354], the activity at 25 µM under setting [1] stood at 79.6%, the activity at 25 µM under setting [2] is 93.1%, the activity at 25 µM under setting [3] came out at 79.3% and the activity at 25 µM under setting [4] was determined as 66.5%. In addition, the activity at 100 µM was 9.54% under setting [5], 2.4% under setting [6] and 4.84% under setting [8]. For the same compound, the Percent fungal survival at 100 µM under setting [7] is 21.4%.

With `O=C(c1ccccc1)N1CCN(c2ccccc2NC(=O)C(Cl)(Cl)Cl)CC1` [MMV001014], the activity at 25 µM reads like this: under setting [17], 76%; under setting [10], 69%; under setting [11], 93.3%; under setting [12], 65.7%. Besides, the activity at 100 µM under setting [18] is 78.9%, the activity at 100 µM under setting [19] worked out at 98.3%, the activity at 100 µM under setting [20] worked out at 71.3% and the activity at 100 µM under setting [21] came to 67.2%.

With `N[C@H](CCC(=O)N[C@@H](Cc1c[nH]c2ccccc12)C(=O)O)C(=O)O` [MMV1581033], the activity at 25 µM came to 91% under setting [27], 91.2% under setting [28], 94.6% under setting [29] and 87.2% under setting [30]. The activity at 100 µM reads like this: under setting [31], 66.8%; under setting [32], 84.1%; under setting [33], 28.6%; under setting [34], 87.7%.

As for `O=C(CSc1nnc(Br)n1-c1ccc(C2CC2)c2ccccc12)Nc1ccc(C(=O)O)cc1Cl` [MMV1782213], the activity at 25 µM amounted to 81% under setting [27], 93.7% under setting [28], 82% under setting [29] and 67.3% under setting [30]. The activity at 100 µM runs as follows: under setting [31], 74.5%; under setting [32], 63.5%; under setting [33], 115%; under setting [34], 45.2%.

For the compound `CCOC(=O)/C=C/[C@H](C[C@@H]1CCNC1=O)NC(=O)[C@@H](CC(=O)[C@@H](NC(=O)c1cc(C)on1)C(C)C)Cc1ccc(F)cc1` [MMV1580491], the activity at 25 µM by setting is: under setting [22], 96.1%; under setting [10], 96.2%; under setting [11], 112%; under setting [12], 79.9%. For the same compound, the activity at 100 µM stood at 93.9% under setting [24], 99.7% under setting [35] and 95.4% under setting [36]. Also, the Percent fungal survival at 100 µM (replicate 2) came out at 86.7%.

For the compound `Cc1[nH]c2ccccc2c1CC(=O)N[C@@H](Cc1ccccc1)C(=O)N(C)c1ccccc1` [MMV1580798], the activity at 25 µM runs as follows: under setting [22], 85.4%; under setting [10], 85.6%; under setting [11], 92.9%; under setting [12], 77.6%. Besides, the activity at 100 µM reads like this: under setting [23], 87.3%; under setting [24], 82.4%; under setting [25], 79.6%; under setting [26], 80.5%.
